Experiments:
[1] = acute oral toxicity (LD50) in Webster mice; format: in vivo; settings: mouse, in vivo, read-out: LD50 (dosage which is lethal for 50% of the mice)
Text: (§1) As stated above, a particular advantage of the builders of the present invention over the salts of unsubstituted oxydiacetic acid, is their lower toxicity. For example, using Webster mice, the acute oral toxicity data, (LD50), i.e., the dosage in grams per kilogram of body weight which is lethal for 50% of the mice, for two of the preferred embodiments compared to disodium oxydiacetate are as follows: […]

Webster mice = experiment: acute oral toxicity (LD50) in Webster mice; format: in vivo; settings: from LD50
Text: as §1

[2] = if accidentally swallowed; cited from earlier work

Compound | LD50 [1] | Remarks (toxicity classification) (Webster mice) | emetic properties [2]
O=C([O-])COCC(=O)[O-].[Na+].[Na+] [reference compound] | 2850 mg/kg | slightly toxic | 
CC(OCC(=O)[O-])C(=O)[O-].[Na+].[Na+] (stereo not shown) | > 5000 mg/kg | non-toxic | 
trisodium polyphosphate |  |  | emetic properties
CC(OC(C)C(=O)[O-])C(=O)[O-].[Na+].[Na+] (stereo not shown) | > 5000 mg/kg | non-toxic | 
